{
  "source": "patent EP0407137B1",
  "about": "“Benzazine compounds and pharmaceutical uses thereof” (priority 1989, dated 1991)",
  "key": {"[1]": {"system": "5-HT₃ receptor", "assay": "Antagonistic effect against von Bezold-Jarish reflex caused by serotonin in anesthetized rats", "format": "in vivo, Male Wistar rats", "details": "i.v., 5 minutes before serotonin (20 µg/kg i.v.), dose required to antagonize the reflex bradycardia by 50%", "experimental": "5-HT₃ receptor blocking effects of the compounds of the present invention were evaluated based on the antagonistic effects against van Bezold-Jarish reflex caused by administering serotonin to anesthetized rats as an index according to Forzard's method described in Naunyuschmiedeberg's Arch. Pharmacol., vol.326, pp36, 1984.\nMale Wistar rats weighing 350-450 g were anesthetized with an intraperitoneal injection of 1.25g/kg of urethane. The left jugular vein was cannulated for the intravenous injection and the left femoral […] was cannulated for the measurement of blood pressure and heart rate. Serotonin (20 µg/kg) was intravenously injected, and the compounds of the present invention were intravenously injected 5 minutes before the challenge with serotonin. The antagonistic activity of the compounds of the present invention against the caused reflex bradycardia was measured and the effective dose (ED₅₀, µg/kg), the dose required to antagonize the maximum activity by 50%, was determined."}, "[2]": {"molecular_target": "T1, serotonin 1A (5-HT1A) receptor (Rattus norvegicus, UniProt P19327)", "T1 sequence (P19327 1-422)": "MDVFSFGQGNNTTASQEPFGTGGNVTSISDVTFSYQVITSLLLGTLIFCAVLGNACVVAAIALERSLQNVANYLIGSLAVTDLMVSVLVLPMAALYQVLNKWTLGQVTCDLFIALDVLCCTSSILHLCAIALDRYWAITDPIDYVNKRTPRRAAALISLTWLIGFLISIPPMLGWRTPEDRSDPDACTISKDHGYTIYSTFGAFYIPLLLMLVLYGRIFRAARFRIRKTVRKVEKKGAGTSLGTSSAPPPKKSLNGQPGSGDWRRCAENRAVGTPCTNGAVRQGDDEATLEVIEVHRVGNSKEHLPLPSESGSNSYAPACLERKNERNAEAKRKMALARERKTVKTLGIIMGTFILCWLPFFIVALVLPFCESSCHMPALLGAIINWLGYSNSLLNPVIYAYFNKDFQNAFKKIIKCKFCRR", "assay": "Serotonin binding test (tritium 8-OH-DPAT, crude synaptosome fraction from hippocampus)", "design": "species or system Wistar rat", "details": "tritium 8-OH-DPAT 0.2 nM, 37°C for 12 minutes, rat hippocampus synaptosomes; read-out: Serotonin binding test IC₅₀", "experimental": "Specific serotonin 1A (5-HT1A) receptor binding test was conducted in accordance with the manner described in Journal of the Neurochemistry, vol.44, page 1685, 1985.\nCrude synaptosome fraction was separated from hippocampus of 9 to 10 weeks-aged Wistar rat and suspended into 50 mM tris-hydrochloric acid buffer solution (pH 7.4) containing 1 mM manganese chloride.\nNext, to the resulting synaptosome suspension were added the test compound of the present invention at several concentrations and tritium 8-OH-DPAT at the terminal concentration of 0.2 nM, and the mixture was allowed to react at 37°C for 12 minutes. After completion of the reaction, the reaction mixture was suction filtered through Whatman GF/B glass filter. The glass filter was washed with 50 mM tris-hydrochloric acid buffer solution (pH 7.4), and then the radioactivity of the residue remaining on the glass filter was measured by liquid scintillation counter. Non-specific binding was determined under the presence of 10⁻⁵M serotonin (5-HT). 50% Inhibition concentration (IC₅₀) of test compound was graphically determined."}, "[3]": {"molecular_target": "T2, dopamine D₂ receptor (Rattus norvegicus, UniProt P61169)", "T2 construct": "Crude synaptosome fraction was separated from corpus striatum of 9 to 10 weeks-aged Wistar rats; from tissue; host or cells: rat corpus striatum, crude synaptosome fraction", "T2 sequence (P61169 whole entry)": "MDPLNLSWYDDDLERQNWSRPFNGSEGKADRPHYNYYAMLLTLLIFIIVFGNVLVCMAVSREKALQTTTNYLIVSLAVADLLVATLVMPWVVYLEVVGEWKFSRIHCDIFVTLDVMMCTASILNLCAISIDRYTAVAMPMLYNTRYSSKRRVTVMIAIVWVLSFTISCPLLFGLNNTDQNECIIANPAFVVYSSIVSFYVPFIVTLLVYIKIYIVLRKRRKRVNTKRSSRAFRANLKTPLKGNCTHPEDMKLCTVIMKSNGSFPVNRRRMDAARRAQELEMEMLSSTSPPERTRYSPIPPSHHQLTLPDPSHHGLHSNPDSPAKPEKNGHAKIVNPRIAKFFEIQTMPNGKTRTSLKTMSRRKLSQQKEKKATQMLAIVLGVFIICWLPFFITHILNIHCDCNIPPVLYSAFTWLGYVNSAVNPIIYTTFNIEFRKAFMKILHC", "assay": "Dopamine D₂ binding test (tritium Spiperone, crude synaptosome fraction from corpus striatum)", "design": "species or system Wistar rats", "details": "tritium Spiperone 0.2 nM, 37°C for 20 minutes, rat corpus striatum synaptosomes; read-out: Dopamine D₂ binding test IC₅₀", "experimental": "Crude synaptosome fraction was separated from corpus striatum of 9 to 10 weeks-aged Wistar rats and suspended into 50 mM tris-hydrochloric acid buffer solution (pH 7.1) containing 120 mM sodium chloride, 5 mM potassium chloride, 2 mM calcium chloride, 1 mM magnesium chloride, 10 µM pargyline and 0.1% ascorbic acid. Next, to the resulting synaptosome suspension were added the test compound of the present invention at several concentrations and tritium Spiperone at the terminal concentration of 0.2 nM, and the mixture was allowed to react at 37°C for 20 minutes. After completion of the reaction, the reaction mixture was suction filtered through Whatman GF/B glass filter. The glass filter was washed with 50 mM tris-hydrochloric acid buffer solution (pH 7.7), and then the radioactivity of the residue remaining on the glass filter was measured by liquid scintillation counter. Non-specific binding was determined under the presence of […]. 50% Inhibition concentration (IC₅₀) of the test compound was graphically determined."}},
  "note": "pIC50: −log10 of the molar value. Structures can show the parent of a compound that is named as a salt.",
  "data": [
    {"smiles": "CN1CCOc2c(C(=O)NC3CN4CCC3CC4)cc(Cl)cc21.Cl", "note": "(centres unmarked) [Example 1, 6-chloro-4-methyl-N-(3-quinuclidinyl)-3,4-dihydro-2H-1,4-benzoxazine-8-carboxamide hydrochloride]", "values": [
      {"measurement": "ED₅₀", "setting": "[1]", "result": 0.28, "unit": "µg/kg"}
    ]},
    {"smiles": "CN1CC(C)(C)Oc2c(C(=O)NC3CN4CCC3CC4)cc(Cl)cc21.Cl", "note": "(centres unmarked) [Example 3, 6-chloro-2,2,4-trimethyl-N-(3-quinuclidinyl)-3,4-dihydro-2H-1,4-benzoxazine-8-carboxamide hydrochloride]", "values": [
      {"measurement": "ED₅₀", "setting": "[1]", "result": 0.12, "unit": "µg/kg"}
    ]},
    {"smiles": "CN1CC(C)(C)Oc2c(C(=O)N[C@H]3CN4CCC3CC4)cc(Cl)cc21.Cl", "note": "[Example 4, (R)-6-chloro-2,2,4-trimethyl-N-(3-quinuclidinyl)-3,4-dihydro-2H-1,4-benzoxazine-8-carboxamide hydrochloride]", "values": [
      {"measurement": "ED₅₀", "setting": "[1]", "result": 0.17, "unit": "µg/kg"}
    ]},
    {"smiles": "CN1CC(C)(C)Oc2c(C(=O)N[C@@H]3CN4CCC3CC4)cc(Cl)cc21.Cl", "note": "[Example 5, (S)-6-chloro-2,2,4-trimethyl-N-(3-quinuclidinyl)-3,4-dihydro-2H-1,4-benzoxazine-8-carboxamide hydrochloride]", "values": [
      {"measurement": "ED₅₀", "setting": "[1]", "result": 0.11, "unit": "µg/kg"}
    ]},
    {"smiles": "CN1CCOc2c(C(=O)N[C@H]3CN4CCC3CC4)cc(Cl)cc21", "note": "[Example 7, (R)-6-chloro-4-methyl-N-(3-quinuclidinyl)-3,4-dihydro-2H-1,4-benzoxazine-8-carboxamide]", "values": [
      {"measurement": "ED₅₀", "setting": "[1]", "result": 0.73, "unit": "µg/kg"}
    ]},
    {"smiles": "CCN1CCCC1CNC(=O)c1cc(Cl)cc2c1OCCN2C", "note": "(centres unmarked) [Example 13, 6-chloro-4-methyl-N-[(1-ethyl-2-pyrrolidinyl)methyl]-3,4-dihydro-2H-1,4-benzoxazine-8-carboxamide hydrochloride]", "values": [
      {"measurement": "pIC50", "setting": "[2]", "result": 6.12}
    ]},
    {"smiles": "CCCCN1CCCC1CNC(=O)c1cc(Cl)cc2c1OCCN2C", "note": "(centres unmarked) [Example 14, 6-chloro-4-methyl-N-[(1-butyl-2-pyrrolidinyl)-methyl]-3,4-dihydro-2H-1,4-benzoxazine-8-carboxamide hydrochloride]", "values": [
      {"measurement": "pIC50", "setting": "[2]", "result": 7.21}
    ]},
    {"smiles": "CCCCCCCCCN1CCC[C@@H]1CNC(=O)c1cc(Cl)cc2c1OCCN2C", "note": "[Example 38, (R)-(+)-6-chloro-4-methyl-N-[(1-nonyl-2-pyrrolidinyl)methyl]-3,4-dihydro-2H-1,4-benzoxazine-8-carboxamide]", "values": [
      {"measurement": "pIC50", "setting": "[3]", "result": 6.16},
      {"measurement": "pIC50", "setting": "[2]", "result": 7.62}
    ]},
    {"smiles": "CCCCN1CCC[C@@H]1CNC(=O)c1cc(Cl)cc2c1OCCN2C", "note": "[Example 39, (R)-(+)-N-[(1-butyl-2-pyrrolidinyl)methyl]-6-chloro-4-methyl-3,4-dihydro-2H-1,4-benzoxazine-8-carboxamide]", "values": [
      {"measurement": "pIC50", "setting": "[3]", "result": 6.20},
      {"measurement": "pIC50", "setting": "[2]", "result": 6.38}
    ]}
  ]
}
